# Read-outs that look alike come from different tables or passages of the source.
# How the values were obtained:
# [1] = test system: hind paws of male rats; test: Anti-inflammatory effect: acute carragheenin edema method; type: in vivo; conditions: for inhibition in vivo at 100 mg/kg: Rattus norvegicus, read-out: Anti-inf.: edema inhibition rate; for anti-inflammatory effect, inhibition rate (ED50), in words: rat, in vivo
# Experimental: The edema was induced by subcutaneous injection of 1% carragheenin suspension in saline to the hind paws of male rats weighting 150 to 180 g. Each sample was orally given at the dosage of 100 mg/kg just before the inoculation of carragheenin.
# [2] = test system: platelet; test: Blood platelet aggregation inhibiting effect (collagen-induced); type: cell-based, rabbits; conditions: 10^-4 mole, collagen inducer, rabbit PRP; for inhibition at 100 µM: Oryctolagus cuniculus, Platelet, read-out: Blood platelet agg. inh.: percentage inhibition of platelet aggregation
# Description: Male rabbits (Japan original white strain 3.3 to 3.6 kg) were anesthetized with Thiopental sodium and blood was sampled from the carotid artery.
# [3] = test system: thrombus; test: Inhibiting effect on thrombosis (by-pass between left juglar vein and right carotid artery, silk thread); type: in vivo, SD type male rates; conditions: Rattus norvegicus, read-out: Thrombosis inh.: thrombosis inhibition rate
# Experimental: The inhibiting effects of the samples of the invention on thrombosis were tested by the following test method.
# A 0.5 ml of 50 μ/ml of the heparin physiological saline was added through the polyethylene tube before the first blood circulation. After the blood circulation for 15 minutes, the circulation was stopped in the middle of the tubing at artery side with a pinch cock.
# Then, 0.2 ml of the heparin physiological saline was added to remove the blood coagulates on the tubing wall and another new polyethylene tubing filled with the heparin solution and containing a piece of new silk thread was attached between the venous and artery tubing ends.
# The blood circulation was reestablished by opening the pinch cock. After 15 minutes, the wet weight of thrombus on the silk thread was similarly measured.
# In the same manner, the third circulation was performed and wet weight of thrombus measured.
# The amount of thrombus was given by the equation A. [formula] Each sample was suspended in an aqueous solution of sodium carboxymethyl cellulose and the oral dose of the suspension (100 mg/kg) was performed at 5 hours before the first blood circulation.
# The amount of thrombus after the oral dose of the sample was calculated in the same manner as that of control circulations.
# The thrombosis inhibition rate was given by the equation B. [formula]
# [4] = test system: male mice; test: Analgesic effect: painful stretchings following intraperitoneal 0.7% acetic acid; conditions: Mus musculus, po, read-out: Analgesic: percentage diminition of times of painful stretching
# Experimental: Each sample was orally administered in the dosage of 100 mg/kg before injection of acetic acid.
# [5] = 100 mg/kg oral, carragheenin edema, male rats (Table 2)
# [6] = 100 mg/kg oral, 5 hours before first blood circulation, rats
# [7] = 100 mg/kg oral, carragheenin edema, male rats (Table 2')
smiles,measurement,setting,value
Cc1ccc(C(=O)c2ccccc2)c(C)c1 [compound 37],inhibition in vivo at 100 mg/kg,[1]; [5],39.6%
same,inhibition at 100 µM,[2],17.4%
same,inhibition in vivo at 100 mg/kg,[3]; [6],5.3%
same,inhibition in vivo at 100 mg/kg,[4],9.8%
CCCCc1ccc(C(=O)c2ccccc2F)cc1 [compound 8],inhibition in vivo at 100 mg/kg,[1]; [5],82.6%
same,inhibition at 100 µM,[2],24%
same,inhibition in vivo at 100 mg/kg,[3]; [6],38%
same,inhibition in vivo at 100 mg/kg,[4],14.8%
Cc1ccc(C(=O)C(=O)c2ccccc2)cc1 [compound 54],inhibition in vivo at 100 mg/kg,[1]; po,25.5%
same,inhibition at 100 µM,[2],15.4%
same,inhibition in vivo at 100 mg/kg,"[3]; po, 5 h",20.3%
same,inhibition in vivo at 100 mg/kg,[4],11.3%
CCc1ccc(C(=O)C(=O)c2ccccc2)cc1 [compound 55],inhibition in vivo at 100 mg/kg,[1]; [5],29%
same,inhibition at 100 µM,[2],23.3%
same,inhibition in vivo at 100 mg/kg,[3]; [6],16.4%
same,inhibition in vivo at 100 mg/kg,[4],15.8%
CCCCOc1ccc(C(=O)c2ccccc2)cc1 [compound 42],inhibition in vivo at 100 mg/kg,[1]; [5],35.8%
same,inhibition at 100 µM,[2],4.4%
same,inhibition in vivo at 100 mg/kg,[3]; [6],10.7%
same,inhibition in vivo at 100 mg/kg,[4],26.8%
CCCCCCCCCCc1ccc(C(=O)c2ccccc2)cc1 [compound 68],inhibition in vivo at 100 mg/kg,[1]; [5],17.6%
same,inhibition at 100 µM,[2],16.5%
same,inhibition in vivo at 100 mg/kg,[3]; [6],20.3%
same,inhibition in vivo at 100 mg/kg,[4],5.8%
CCCc1ccc(C(=O)Cc2ccccc2)cc1 [compound 49],inhibition in vivo at 100 mg/kg,[1]; [5],10.7%
same,inhibition at 100 µM,[2],28.5%
same,inhibition in vivo at 100 mg/kg,[3]; [6],13.4%
same,inhibition in vivo at 100 mg/kg,[4],18.2%
Cc1cc(C)c(C(=O)c2ccccc2)c(C)c1 [compound 30],Blood platelet agg. inh.: percentage inhibition of platelet aggregation,[2],8.7%
CCCCc1ccc(C(=O)c2ccc(Cl)cc2)cc1 [compound 64],inhibition in vivo at 100 mg/kg,[1]; [5],21.4%
same,inhibition at 100 µM,[2],28.5%
same,inhibition in vivo at 100 mg/kg,[3]; [6],15.9%
same,inhibition in vivo at 100 mg/kg,[4],6.6%
CCCCCCCCc1ccc(C(=O)c2ccccc2Br)cc1 [compound 145],inhibition in vivo at 100 mg/kg,[1]; [7],60.2%
CCCCCCCCc1ccc(C(=O)c2cccc(Cl)c2)cc1 [compound 141],inhibition in vivo at 100 mg/kg,[1]; [7],13.8%
CCCCCc1ccc(C(=O)c2ccc(OC)cc2)cc1 [compound 45],inhibition in vivo at 100 mg/kg,[1]; [5],37.8%
same,inhibition at 100 µM,[2],17.7%
same,inhibition in vivo at 100 mg/kg,[3]; [6],30.8%
same,inhibition in vivo at 100 mg/kg,[4],12.5%
CCCCCCCCCc1ccc(C(=O)c2ccc(CCCC)cc2)cc1 [compound 102],inhibition in vivo at 100 mg/kg,[1]; [5],22.4%
same,inhibition at 100 µM,[2],30.4%
same,inhibition in vivo at 100 mg/kg,[3]; [6],29.7%
same,inhibition in vivo at 100 mg/kg,[4],15.2%
CCCCCc1ccc(C(=O)c2cccc(F)c2)cc1 [compound 124],inhibition in vivo at 100 mg/kg,[1]; [7],23.5%
CCCCc1ccc(C(=O)c2cccc(I)c2)cc1 [compound 160],inhibition in vivo at 100 mg/kg,[1]; [7],10.8%
CCCCCc1ccc(C(=O)c2ccc(CCCCC)cc2)cc1 [compound 111],inhibition in vivo at 100 mg/kg,[1]; [5],20.6%
same,inhibition at 100 µM,[2],10.3%
same,inhibition in vivo at 100 mg/kg,[3]; [6],17.3%
same,inhibition in vivo at 100 mg/kg,[4],11.3%
Cc1cc(C)c(C(=O)c2ccc(I)cc2)c(C)c1 [compound 166],inhibition in vivo at 100 mg/kg,[1]; [7],21.5%
CCCc1ccc(C(=O)c2ccccc2I)cc1 [compound 154],inhibition in vivo at 100 mg/kg,[1]; [7],29%
CCCCCc1ccc(C(=O)c2cccc(Cl)c2)cc1 [compound 140],inhibition in vivo at 100 mg/kg,[1]; [7],14.9%
"Cc1cc(C)c(C(=O)c2ccccc2F)c(C)c1 [Active ingredient No. 11, 2-Fluoro-2',4',6'-trimethyl-benzophenone]","anti-inflammatory effect, inhibition rate (ED50), in words",[1],especially high inhibition rate (ED50)
CCCCc1ccc(C(=O)c2ccccc2Br)cc1 [compound 143],inhibition in vivo at 100 mg/kg,[1]; [7],45.4%
CCCCCc1ccc(C(=O)c2ccccc2Cl)cc1 [compound 133],inhibition in vivo at 100 mg/kg,[1]; [7],38.3%
Cc1ccc(C(=O)c2ccc(I)cc2)c(C)c1 [compound 165],inhibition in vivo at 100 mg/kg,[1]; [7],19.2%
Cc1cc(C)c(C(=O)c2ccc(F)cc2)c(C)c1 [compound 131],inhibition in vivo at 100 mg/kg,[1]; [7],33.6%
COc1ccc(C(=O)c2ccc(Cl)cc2)cc1 [compound 136],inhibition in vivo at 100 mg/kg,[1]; [7],13.2%
"CCCCCc1ccc(C(=O)c2ccccc2F)cc1 [Active ingredient No. 9, 2-Fluoro-4'-n-amyl-benzophenone]","anti-inflammatory effect, inhibition rate (ED50), in words",[1],especially high inhibition rate (ED50)
Cc1ccc(C(=O)c2cccc(Br)c2)c(C)c1 [compound 149],inhibition in vivo at 100 mg/kg,[1]; [7],42.2%
CCCCCCCCc1ccc(C(=O)c2cccc(I)c2)cc1 [compound 161],inhibition in vivo at 100 mg/kg,[1]; po,20.9%
Cc1cc(C)c(C(=O)c2ccccc2I)c(C)c1 [compound 159],inhibition in vivo at 100 mg/kg,[1]; [7],15.9%
CCCCOc1ccc(C(=O)c2ccc(Cl)cc2)cc1 [compound 137],inhibition in vivo at 100 mg/kg,[1]; [7],16.7%
CCCc1ccc(C(=O)c2ccccc2Br)cc1 [compound 142],inhibition in vivo at 100 mg/kg,[1]; [7],38.9%
CCCCCc1ccc(C(=O)c2ccccc2Br)cc1 [compound 144],inhibition in vivo at 100 mg/kg,[1]; [7],50%
Cc1ccc(C(=O)c2ccc(F)cc2)c(C)c1 [compound 130],inhibition in vivo at 100 mg/kg,[1]; [7],37.8%
O=C(c1ccccc1)c1ccc(C2CCCCC2)cc1 [compound 73],Blood platelet agg. inh.: percentage inhibition of platelet aggregation,[2],20.3%
CCCCCCCCc1ccc(C(=O)c2ccc(F)cc2)cc1 [compound 129],inhibition in vivo at 100 mg/kg,[1]; [7],38.6%
Cc1cc(C)c(C(=O)c2cccc(I)c2)c(C)c1 [compound 163],inhibition in vivo at 100 mg/kg,[1]; [7],16.4%
CCCc1ccc(C(=O)c2ccc(Br)cc2)cc1 [compound 150],inhibition in vivo at 100 mg/kg,[1]; [7],14%
Cc1ccc(C(=O)c2ccccc2Br)c(C)c1 [compound 146],inhibition in vivo at 100 mg/kg,[1]; [7],23.1%
CCCCCCCCc1ccc(C(=O)c2cccc(Br)c2)cc1 [compound 148],inhibition in vivo at 100 mg/kg,[1]; [7],36.3%
CCCCCCCCc1ccc(C(=O)c2ccccc2Cl)cc1 [compound 134],inhibition in vivo at 100 mg/kg,[1]; [7],35.1%
CCC(C)(C)c1ccc(C(=O)c2ccccc2F)cc1 [compound 122],inhibition in vivo at 100 mg/kg,[1]; [7],39.3%
Cc1ccc(C(=O)c2ccc(Br)cc2)c(C)c1 [compound 152],inhibition in vivo at 100 mg/kg,[1]; [7],22.6%
Cc1ccc(C(=O)c2cccc(F)c2)c(C)c1 [compound 126],inhibition in vivo at 100 mg/kg,[1]; [7],27.7%
"O=C(c1ccccc1)c1ccccc1F [Active ingredient No. 15, 2-fluorobenzophenone]","anti-inflammatory effect, inhibition rate (ED50), in words",[1],especially high inhibition rate (ED50)
CCCCCCCCc1ccc(C(=O)c2ccc(Br)cc2)cc1 [compound 151],inhibition in vivo at 100 mg/kg,[1]; [7],15.3%
CCCCCCc1ccc(C(=O)c2ccc(C)cc2C)cc1 [Active ingredient No. 4],Blood platelet agg. inh.: percentage inhibition of platelet aggregation,[2],20.5%
CCCCCc1ccc(C(=O)c2ccccc2I)cc1 [compound 156],inhibition in vivo at 100 mg/kg,[1]; [7],43%
CCCCCc1ccc(C(=O)c2ccc(F)cc2)cc1 [compound 128],inhibition in vivo at 100 mg/kg,[1]; [7],33.6%
CCCCc1ccc(C(=O)c2ccc(F)cc2)cc1 [compound 127],inhibition in vivo at 100 mg/kg,[1]; [7],58.8%
CC(C)Cc1ccc(C(=O)c2ccccc2F)cc1 [compound 118],inhibition in vivo at 100 mg/kg,[1]; [7],32.7%
CCCCc1ccc(C(=O)c2cccc(F)c2)cc1 [compound 123],inhibition in vivo at 100 mg/kg,[1]; [7],38.3%
CCCCCCCCc1ccc(C(=O)c2ccc(I)cc2)cc1 [compound 164],inhibition in vivo at 100 mg/kg,[1]; [7],29%
CC(C)c1ccc(C(=O)c2ccccc2F)cc1 [compound 117],inhibition in vivo at 100 mg/kg,[1]; [7],53.3%
CCCCc1ccc(C(=O)c2ccccc2I)cc1 [compound 155],inhibition in vivo at 100 mg/kg,[1]; [7],31.8%
CC(C)(C)c1ccc(C(=O)c2ccccc2F)cc1 [compound 120],inhibition in vivo at 100 mg/kg,[1]; [7],38.3%
Cc1ccc(C(=O)c2ccccc2Cl)c(C)c1 [compound 135],inhibition in vivo at 100 mg/kg,[1]; [7],37.2%
CCCCCCOc1ccc(C(=O)c2ccc(Cl)cc2)cc1 [compound 138],inhibition in vivo at 100 mg/kg,[1]; [7],12.5%
CCCCCCCCc1ccc(C(=O)c2ccccc2I)cc1 [compound 157],inhibition in vivo at 100 mg/kg,[1]; [7],37.4%
Cc1cc(C)c(C(=O)c2ccccc2Br)c(C)c1 [compound 147],inhibition in vivo at 100 mg/kg,[1]; [7],20.4%
Cc1cc(C)c(C(=O)c2ccc(Br)cc2)c(C)c1 [compound 153],inhibition in vivo at 100 mg/kg,[1]; [7],27.8%
CCCc1ccc(C(=O)c2cccc(Cl)c2)cc1 [compound 139],inhibition in vivo at 100 mg/kg,[1]; [7],11.7%
Cc1ccc(C(=O)c2ccccc2I)c(C)c1 [compound 158],inhibition in vivo at 100 mg/kg,[1]; [7],32.7%
CCCc1ccc(C(=O)c2ccccc2Cl)cc1 [compound 132],inhibition in vivo at 100 mg/kg,[1]; [7],14.9%
Cc1cc(C)c(C(=O)c2cccc(F)c2)c(C)c1 [compound 125],inhibition in vivo at 100 mg/kg,[1]; [7],18.1%
Cc1ccc(C(=O)c2cccc(I)c2)c(C)c1 [compound 162],inhibition in vivo at 100 mg/kg,[1]; [7],13%
CCC(C)c1ccc(C(=O)c2ccccc2F)cc1 (stereo not shown) [compound 119],inhibition in vivo at 100 mg/kg,[1]; [7],60.7%
COc1ccc(C(=O)c2ccccc2F)cc1 [compound 116],inhibition in vivo at 100 mg/kg,[1]; [7],59.8%
